Measured values reported in paper PMC4876117, “Functional Dissection of the Bipartite Active Site of the Class I Coenzyme A (CoA)-Transferase Succinyl-CoA:Acetate CoA-Transferase” (Frontiers in Chemistry, 2016).

Experiments:
AarC (AarCH6) [1] = biological target: T1, AarC (AarCH6) (Acetobacter aceti, UniProt B3EY95); assay: X-ray crystallography (co-crystal); format: binding; settings: sodium citrate, imidazole pH 8.2, 22 °C
T1 construct: C-terminal hexahistidine tag kept, plasmid pJK385 (N347A: pJK524), expressed in E. coli C41(DE3) pREP4-groESL, homodimer

AarC (AarCH6) [2] = biological target: T2, AarC (AarCH6) (Acetobacter aceti, UniProt B3EY95, N347A); assay: X-ray crystallography (co-crystal); format: binding; settings: 10 mM CoA, sodium citrate, imidazole pH 8.2, 22 °C; 2.13 Å; active site
T2 construct: C-terminal hexahistidine tag kept, plasmid pJK385 (N347A: pJK524), expressed in E. coli C41(DE3) pREP4-groESL, homodimer
T2 sequence (B3EY95 whole entry N347A): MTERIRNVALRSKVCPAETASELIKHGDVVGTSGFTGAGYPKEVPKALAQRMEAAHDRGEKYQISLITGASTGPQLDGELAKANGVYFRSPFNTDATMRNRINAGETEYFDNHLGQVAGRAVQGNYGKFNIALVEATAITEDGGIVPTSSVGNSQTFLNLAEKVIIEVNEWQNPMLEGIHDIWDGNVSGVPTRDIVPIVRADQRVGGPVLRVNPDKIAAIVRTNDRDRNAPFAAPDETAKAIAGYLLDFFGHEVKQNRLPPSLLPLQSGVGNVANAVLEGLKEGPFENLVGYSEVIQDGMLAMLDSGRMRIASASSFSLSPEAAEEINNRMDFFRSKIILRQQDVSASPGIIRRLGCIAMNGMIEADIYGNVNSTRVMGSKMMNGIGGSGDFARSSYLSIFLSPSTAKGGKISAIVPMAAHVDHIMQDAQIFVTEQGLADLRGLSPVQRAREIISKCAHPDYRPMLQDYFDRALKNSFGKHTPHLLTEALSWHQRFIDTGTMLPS

CCCNC(=O)CCNC(=O)[C@H](O)C(C)(C)COP(=O)(O)OP(=O)(O)OC[C@H]1O[C@@H](n2cnc3c(N)ncnc32)[C@H](O)[C@@H]1OP(=O)(O)O [2a, 3′-phosphoadenosine 5′-(O-(N-propyl-R-pantothenamide))pyrophosphate]
X-ray crystallography (co-crystal) (AarC (AarCH6) [1]; 1-3 mM 2a, 1.66 Å, active site, 5dw6 is the complex with added acetate (1.55 Å)): The AarC•2a complex (PDB entry 5dw5) contained three chloride ions

CC(C)(COP(=O)(O)OP(=O)(O)OC[C@H]1O[C@@H](n2cnc3c(N)ncnc32)[C@H](O)[C@@H]1OP(=O)(O)O)[C@@H](O)C(=O)NCCC(=O)NCCS [CoA]
X-ray crystallography (co-crystal) (AarC (AarCH6) [2]): The B subunits of AarC-N347A (PDB entry 5ddk, white carbon atoms)

CC(=O)O [acetate]
X-ray crystallography (co-crystal) (AarC (AarCH6) [1]; 1-50 mM sodium acetate, 1.62 Å, three sites per subunit, the first near the active site, also in 5dw6 with 2a): The final model contained three acetate binding sites in each subunit
